{"source": "patent US9334229B2", "about": "“Hydroxytyrosol derivatives, their method of preparation and use in personal care” (Eastman Chemical Company, priority 2013, dated 2016)", "key": {"[1]": {"assay": "Control reaction without enzyme (toluene / pH 7 phosphate buffer)", "type": "physicochemical", "procedure": "3,4-Bis(ethoxycarbonyloxy)phenethyl palmitate (100 mg; 0.186 mmol) was dissolved in 2 mL of toluene. […] The mixture was stirred vigorously and periodically analyzed by HPLC. After 24 h, LC analysis indicated 75.4% conversion of Compound 2 to hydroxytyrosol. After 48 h, LC analysis indicated 82.6% conversion of Compound 2 to hydroxytyrosol."}, "[2]": {"target": "T1, Novozyme 435 (Candida antarctica lipase B immobilized on an acrylic resin) (Moesziomyces antarcticus, UniProt P41365)", "T1 construct": "purchased Novozyme 435", "T1 sequence (P41365 26-342)": "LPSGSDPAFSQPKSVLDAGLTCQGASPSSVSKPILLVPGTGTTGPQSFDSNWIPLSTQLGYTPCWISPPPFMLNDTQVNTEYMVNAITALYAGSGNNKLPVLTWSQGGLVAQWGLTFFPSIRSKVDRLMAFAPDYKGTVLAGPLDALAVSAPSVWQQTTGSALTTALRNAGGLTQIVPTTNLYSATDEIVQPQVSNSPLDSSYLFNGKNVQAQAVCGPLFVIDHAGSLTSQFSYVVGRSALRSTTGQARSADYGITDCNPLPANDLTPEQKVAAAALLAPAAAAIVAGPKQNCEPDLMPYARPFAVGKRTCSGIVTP", "assay": "Enzymatic hydrolysis with Novozyme 435 in toluene / pH 7 phosphate buffer, conversion to hydroxytyrosol by HPLC", "type": "in vitro ADME", "conditions": "100 mg compound, 100 mg Novozyme 435, toluene / pH 7 phosphate buffer, LC analysis", "procedure": "(§1) 3,4-Bis(ethoxycarbonyloxy)phenethyl palmitate (100 mg; 0.186 mmol) was dissolved in 2 mL of toluene. Novozyme 435 (Candida antarctica lipase B immobilized on an acrylic resin) (100 mg) was added followed by 2 mL of pH 7 phosphate buffer. The mixture was stirred vigorously and periodically analyzed by HPLC. After 24 h, LC analysis indicated 75.4% conversion of Compound 2 to hydroxytyrosol. After 48 h, LC analysis indicated 82.6% conversion of Compound 2 to hydroxytyrosol.\nas §1, with “Hydroxytyrosol trihexanoate from Comparative Example 8” for “3,4-Bis(ethoxycarbonyloxy)phenethyl palmitate”, “0.223” for “0.186”, “resin)(100” for “resin) (100”, “<1%” for “75.4%”, “hydroxytyrosol trihexanoate” for “Compound 2”, “<1%” for “82.6%”"}}}
{"molecule": "CCCCCCCCCCCCCCCC(=O)OCCc1ccc(OC(=O)OCC)c(OC(=O)OCC)c1", "note": "[Compound 2, 3,4-Bis(ethoxycarbonyloxy)phenethyl palmitate]", "values": [{"measurement": "conversion to hydroxytyrosol in control reaction without enzyme", "setting": "[1]", "result": "no conversion"}]}
{"molecule": "CCCCCC(=O)OCCc1ccc(OC(=O)CCCCC)c(OC(=O)CCCCC)c1", "note": "[Hydroxytyrosol trihexanoate, Hydroxytyrosol Trihexanoate]", "values": [{"measurement": "Enzymatic conversion to hydroxytyrosol", "setting": "[2]; after 24 h", "result": "<1", "unit": "%"}, {"measurement": "Enzymatic conversion to hydroxytyrosol", "setting": "[2]; after 24 h, listed as hydroxytyrosol trihexanoate", "result": "< 1", "unit": "%"}, {"measurement": "Enzymatic conversion to hydroxytyrosol", "setting": "[2]; after 48 h", "result": "<1", "unit": "%"}, {"measurement": "Enzymatic conversion to hydroxytyrosol", "setting": "[2]; after 48 h, listed as hydroxytyrosol trihexanoate", "result": "< 1", "unit": "%"}]}
